Results as given in patent publication US20260306464A1, “LINAPRAZAN GLURATE FOR TREATING GASTROESOPHAGEAL REFLUX DISEASE (GERD)” (Cinclus Pharma Holding AB (publ), priority 2023, published 2026).

Legend:
[1] = LEED study: endoscopic healing of erosive esophagitis / LA grade improvement after 4 weeks; type: in vivo, human
Description: The severity of esophagitis is typically indicated using the Los Angeles (LA) classification of reflux esophagitis, which is based on an endoscopic assessment of the patient. The LA grade scoring system divides reflux esophagitis into four categories (LA grade A to D) based on the extent of esophageal mucosal breaks. […] LA grade C esophagitis is defined as one or more mucosal breaks that are continuous between the tops of two mucosal folds, but which involves less than 75% of the esophageal circumference. The most severe form, LA grade D esophagitis, is defined as one or more mucosal breaks involving at least 75% of the esophageal circumference (Lundell et al., Gut 1999, vol. 45, p. 172-180).
As used herein, the terms “improvement of the LA grade” and “LA grade improvement” refer to one or more steps from one LA grade to a lower LA grade (such as from grade D to grade C, B or A) or to being healed. In some embodiments, the improvement of the LA grade is 1 step. In some embodiments, the improvement of the LA grade is 2 steps. In some embodiments, the improvement of the LA grade is 3 steps. In some embodiments, the improvement of the LA grade is 4 steps.
The study included patients with erosive esophagitis (eGERD). Patients were divided into two cohorts, one with patients having moderate to severe eGERD (LA grade C/D) and one with patients having milder eGERD (LA grade A/B) with a history of only partial response to PPI-treatment. The primary endpoint of the study was to support dose selection of linaprazan glurate for the phase III program in eGERD, through central assessment of healing of erosive esophagitis after four weeks of treatment. The sample size, i.e., the number of patients needed, for measuring dose related efficacy was based on the patient cohort with moderate to severe eGERD. After initial endoscopy and other screening procedures, 248 patients were randomized equally into one of five treatment groups, receiving either four weeks treatment with linaprazan glurate in four dose levels, or four weeks lansoprazole in the approved standard eGERD healing dose. Thereafter, an endoscopic evaluation of healing was performed, where healing was defined as no presence of esophageal erosions, i.e., no erosive damage to the esophageal mucosa. After the endoscopic evaluation, all patient groups received lansoprazole for four weeks in a maintenance phase. A retrospective central review of the endoscopy findings was performed, and 162 patients were available for evaluation of the primary endpoint. All enrolled 248 patients were included in the safety analysis.
The study was a randomized, double-blind, active comparator-controlled study with a parallel group design including four arms with linaprazan glurate and one arm with lansoprazole. Pharmacokinetic (PK) blood sampling pre-dose, close before the first and the second dose administration was performed at Day 7, Day 14 and Day 28 visits days in all patients. 248 patients with erosive esophagitis due to GERD LA grade C or D and patients with erosive esophagitis due to GERD LA grade A or B with at least partial symptom response but still endoscopically unhealed after 8 weeks history of standard treatment healing course with PPI, were randomized.
Randomization to one of the treatments with linaprazan glurate 25 mg, 50 mg, 75 mg, 100 mg twice daily (BID), or lansoprazole 30 mg once daily (QD) was based on a 1:1:1:1:1 scheme. One site could not enroll more than about 20% of the overall number of patients (48 patients per site).
The duration of each patient's participation in the study, including screening, blind treatment period and open-label treatment period, was approximately 60 days. The patients were randomized for 4 weeks (28 days, −2/+5 days) of double-blind treatment and were provided with IMP for 35 days (including one additional blister pack dispensed at Visit 2/Day 0) to allow for treatment up to the visit window. […]

[2] = background statement; cited from earlier work
intragastric pH = experiment: 48-hour intragastric pH-metry, Phase 1 exploratory dose-finding study in healthy subjects; type: in vivo, human; settings: for Hours with pH >4 (Mean (SD)) / Hours with pH >4 (Median (min, max)) / Percentage of time with pH >4 (Mean) / Percentage of time with pH >4 (Median (min, max)): healthy subjects
Description: The study was a single-centre, open-label, parallel-group, randomised exploratory dose-finding study designed to evaluate the PK, PD, safety and tolerability of repeated oral doses of linaprazan glurate (LG) at 3 dose levels, in healthy male and female subjects. About 36 subjects were randomised for an estimated total of 12 evaluable subjects per treatment arm.
Subjects came to the clinic for 3 visits. The screening (Visit 1) took place from Day −28 to Day −1 and included an eligibility check and review of health status. At Visit 2, subjects were admitted to the clinic on Day −1 and remained at the clinic until Day 4 for repeated dose of LG administration and safety, PK and PD assessments. The subjects fasted for at least 8 hours before the anticipated dosing time on Day 1. Water, but no other drinks, was allowed as desired except for 1 hour before and 30 minutes after dosing. In the morning of Day 1, subjects were randomised to one of 3 treatment arms: • LG 50 mg BID for 3 days (5 doses, last dose in the morning of Day 3) • LG 100 mg (2×50 mg) BID for 3 days (5 doses, last dose in the morning of Day 3) • LG 150 mg (3×50 mg) BID for 3 days (5 doses, last dose in the morning of Day 3)
Subjects were carefully monitored by clinical staff during and after dosing. […] The pH-metry assessment was started prior to Dose 3 (in the morning of Day 2) and continued for 48 hours, until 24 hours post last dose. Vital signs and ECG were checked at regular intervals and PK sampling was done at selected timepoints. A final end-of-study visit (Visit 3) took place on Day 7 (±2) or after early withdrawal. Each subject was expected to participate in the study for approximately 7 days from the day of randomisation (Day 1, Visit 2) to the End-of Study Visit. The Screening Visit was performed within 28 days prior to randomisation (Day −28 to Day −1).

[3] = LA grade C/D, LG 100 mg BID, 4 weeks
[4] = 50 mg LG, 1 last dose in the morning (Day 3, "QD")
[5] = 50 mg LG, 2 doses (Day 2, BID), oral
[6] = 100 mg LG, 1 last dose in the morning (Day 3, "QD")
[7] = 100 mg LG, 2 doses (Day 2, BID), oral
[8] = 150 mg LG, 1 last dose in the morning (Day 3, "QD")
[9] = 150 mg LG, 2 doses (Day 2, BID), oral
[10] = 100 or 150 mg, two daily doses (Day 2) vs once daily (Day 3)

Compound: Cc1cccc(C)c1CNc1cc(C(=O)NCCOC(=O)CCCC(=O)O)cn2c(C)c(C)nc12 [linaprazan glurate, 5-{2-[({8-[(2,6-dimethylbenzyl)amino]-2,3-dimethylimidazo[1,2-a]pyridine-6-yl}carbonyl)-amino]ethoxy}-5-oxopentanoic acid]
- healing rate vs lansoprazole ([1]; 4-week treatment vs 30 mg/day lansoprazole): significantly higher healing rates
- dose response in the healing rates ([1]; 4 weeks, LG 25-100 mg BID): clear dose response
- healing rate of eGERD ([1]; 25, 50, 75 or 100 mg twice daily for 4 weeks): high healing rates
- highest four-week healing rate in a linaprazan glurate dosing group ([1]; LA grade A/B, 4 weeks, BID): 91%
- mean healing rate, all patients treated with linaprazan glurate ([1]; LA grade A/B/C/D, 4 weeks, all LG doses, FIG. 8): 80%
- highest mean LA grade improvement in a linaprazan glurate dosing group ([1]; LA grade C/D, 4 weeks, BID, FIG. 5): 3.1
- LA grade improvement of all LG-treated patients vs lansoprazole ([1]; LA grade C/D, 4 weeks, all LG doses): higher than lansoprazole
- highest four-week healing rate in a linaprazan glurate dosing group ([1]; LA grade C/D, 4 weeks, FIG. 6 (all LG dose group), FIG. 7 (LG 75 mg dose group)): 89%
- patients whose 4-week LA grade was A [1, 3]: 6 out of 7
- response in the 100 mg dose group [1, 3]: lower than expected
- healing rate of all LG-treated patients vs lansoprazole ([1]; LA grade C/D, post-hoc analysis, Fisher's exact test): significantly higher than lansoprazole
- mean harmonic p-value, healing rate LG vs lansoprazole ([1]; LA grade C/D, post-hoc, Fisher's exact test): 0.0404
- plasma half-life [2]: approximately 10 hours
- Hours with pH >4 (Mean (SD)) (intragastric pH; [4]): 17.04 (5.33) hours
- Hours with pH >4 (Median (min, max)) (intragastric pH; [4]): 15.80 (6.8, 23.8) hours
- Percentage of time with pH >4 (Mean) (intragastric pH; [4]): 71.15%
- Percentage of time with pH >4 (Median (min, max)) (intragastric pH; [4]): 65.90 (28.6, 99.8) %
- Hours with pH >4 (Mean (SD)) (intragastric pH; [5]): 15.47 (4.83) hours
- Hours with pH >4 (Median (min, max)) (intragastric pH; [5]): 15.65 (8.5, 23.8) hours
- Percentage of time with pH >4 (Mean) (intragastric pH; [5]): 64.48%
- Percentage of time with pH >4 (Median (min, max)) (intragastric pH; [5]): 65.20 (35.4, 99.1) %
- Hours with pH >4 (Mean (SD)) (intragastric pH; [6]): 18.38 (3.84) hours
- Hours with pH >4 (Median (min, max)) (intragastric pH; [6]): 19.30 (11.6, 23.5) hours
- Percentage of time with pH >4 (Mean) (intragastric pH; [6]): 76.81%
- Percentage of time with pH >4 (Median (min, max)) (intragastric pH; [6]): 80.50 (48.9, 97.8) %
- Hours with pH >4 (Mean (SD)) (intragastric pH; [7]): 18.93 (4.83) hours
- Hours with pH >4 (Median (min, max)) (intragastric pH; [7]): 21.30 (7.0, 22.8) hours
- Percentage of time with pH >4 (Mean) (intragastric pH; [7]): 78.85%
- Percentage of time with pH >4 (Median (min, max)) (intragastric pH; [7]): 88.70 (29.1, 95.0) %
- Hours with pH >4 (Mean (SD)) (intragastric pH; [8]): 20.38 (3.51) hours
- Hours with pH >4 (Median (min, max)) (intragastric pH; [8]): 21.05 (15.5, 24.0) hours
- Percentage of time with pH >4 (Mean) (intragastric pH; [8]): 85.14%
- Percentage of time with pH >4 (Median (min, max)) (intragastric pH; [8]): 88.00 (64.9, 99.8) %
- Hours with pH >4 (Mean (SD)) (intragastric pH; [9]): 22.00 (2.60) hours
- Hours with pH >4 (Median (min, max)) (intragastric pH; [9]): 23.05 (16.6, 24.0) hours
- Percentage of time with pH >4 (Mean) (intragastric pH; [9]): 91.64%
- Percentage of time with pH >4 (Median (min, max)) (intragastric pH; [9]): 96.05 (69.3, 99.8) %
- additional hours with pH>4 (median), BID vs QD (intragastric pH; [10]): about two
- longer time with pH>4, BID vs QD (intragastric pH; [10]): about 10%
